Experimental data reported in patent publication US8575112B2, “Small peptide modulators of potassium channel trafficking” (University of Houston System, priority 2009, dated 2013).

Assays:
Format in all cases: cell-based
Slo1VEDEC = experiment: Cell-surface biotinylation assay, HEK293T cells expressing Myc-Slo1VEDEC, after peptide delivery; conditions: HEK293T cells expressing Myc-tagged Slo1VEDEC, 1 mg peptide delivered with PULSin, compared to R-PE control
Experimental: (§1) HEK293T (human embryonic kidney) cells were grown in Dulbecco's modified Eagle's medium (Invitrogen) containing heat-inactivated 10% fetal bovine serum (FBS) and penicillin-streptomycin (Invitrogen) at 37° C. in a 5% CO2 incubator. Cells were transiently transfected for 24 to 48 hours using Lipofectamine 2000 (Invitrogen) in the serum-reduced medium OPTI-MEM, Invitrogen) following the manufacturer's instructions. The immortalized and undifferentiated mouse podocyte cell line was grown in RPMI1640 with 10% FBS supplied with 10 U/mL interferon-g (INF-γ) at 33° C. in a 5% CO2 incubator. Podocytes' differentiation was induced by removing INF-γ and switching to 37° C. in a 5% CO2 incubator for 14 days.
(§2) Cell-surface biotinylation was carried out by labeling cells with 1 mg/mL EZ-Link Sulfo-NHS-Biotin reagents (Pierce) in PBS (137 mM NaCl, 10 mM Phosphate, 2.7 mM KCl, pH 7.4) at 4 C with gentle shaking for 1.5 hours, which was followed by incubating the labeled cells in the cold PBS containing 100 mM glycine for additional 20 minutes at 4° C. to stop the reaction. […]
(§3) All samples were loaded and separated on 10% SDS-PAGE. […] Slo1 proteins were detected by primary antibodies, including mouse anti-Myc, mouse anti-HA, rabbit anti-VEDEC, rabbit anti-QEERL, and rabbit anti-Slo1 (APC107, Alomone labs) antibodies, as indicated. […]

Slo1QEERL = experiment: Cell-surface biotinylation assay, HEK293T cells expressing Myc-Slo1QEERL, after peptide delivery; conditions: HEK293T cells expressing Myc-tagged Slo1QEERL by itself; 1 mg peptide delivered with PULSin; compared to R-PE control
Experimental: as §1, §2, §3

[1] = tested on: heterologously and endogenously expressed Slo1 channels; experiment: Intracellular delivery of VEDEC-motif peptides, surface expression of Slo1 channels (summary statement); conditions: intracellular delivery of peptide
[2] = tested on: endogenous Ca2+-activated K+ channels (BKCa) in podocytes; experiment: Whole-cell recordings from differentiated mouse podocytes after peptide delivery
Experimental: FIG. 7A depicts whole cell recording analyses are carried out in differentiated mouse podocytes treated with either R-PE (control) or IREVEDEC (SEQ ID NO: 9) peptides. The recording electrode contained free Ca^2+ of 5 μM and currents are evoked by a series of depolarizing steps from a holding potential of −60 mV. Representative whole-cell current traces are shown above bar graphs Left: R-PE control (Ctrl); Right: IREVEDEC (SEQ ID NO: 9) peptides. […] Asterisk indicates p<0.05.
as §1
Whole cell recordings were performed in HEK293T transiently expressing different Slo1 constructs using standard methods. […]

IREVEDEC (Octopetide modulator of Calcium activated Potassium channels) [NH2-IREVEDEC-COOH, octopeptide containing the VEDEC motif, synthesized by Peptide 2.0]
total expression of Slo1VEDEC (Slo1VEDEC): no effect
surface expression of Slo1VEDEC (Slo1VEDEC; densitometry of immunoblots): increases
surface expression of Slo1QEERL (Slo1QEERL): no effect
total expression of Slo1QEERL (Slo1QEERL): no effect
surface expression of heterologously and endogenously expressed Slo1 (BKCa) channels [1]: increase
current through Ca2+-activated K+ channels (current density at +60 mV) ([2]; differentiated mouse podocytes, 3 mg octopeptide with PULSin, electrode free Ca2+ 5 μM, vs R-PE control, n=33 cells, p<0.05): large increase
activation or deactivation kinetics of macroscopic currents ([2]; mouse podocytes, whole-cell recording, data not shown): does not alter
